Reference: article PMC7590976, “Detection of Active Granzyme A in NK92 Cells with Fluorescent Activity-Based Probe” (Journal of Medicinal Chemistry, 2020)
Values joined by “and” are separate entries in the source; they are usually repeats but may differ in a detail not shown here. Identical values can stand only once. Non-standard residues stand in square brackets, D forms with d. *: point of attachment. Oic = O=C(O)[C@@H]1C[C@@H]2CCCC[C@@H]2N1; ACC = NC(=O)Cc1cc(=O)oc2cc(N*)ccc12

Experiments:
[1] = system: human GrA; assay: P1 library screening (individual substrates Ac-Ile-Ser-Pro-P1-ACC) with GrA; conditions: relative to best P1 residue (100%); substrates at the same concentration; fluorescence 355/460 nm
[2] = system: GrA; assay: Residual activity assay, GrA preinhibited with SK15I or SK15.5; assay type: biochemical, human; conditions: substrate SK15; preincubation 30 min, 37 °C
Method: (§1) We wondered whether the selectivity of our SK15-based molecules for GrA would be maintained by substrate structure modifications, such as replacing ACC with a diphenyl phosphonate warhead and changing the N-terminus from acetyl to the cyanine derivative Cy5.
(§2) As a control, enzymes without inhibitor and probe were tested.

[3] = system: GrM; assay: Residual activity assay, GrM; assay type: biochemical, human; conditions: 74 nM GrM preincubated with 10 μM compound 30 min 37 °C; substrate Ac-Lys-Val-Pro-Leu-ACC
Method: as §1, §2

[4] = target: T1, GrA (Homo sapiens, UniProt P12544); assay: In-gel detection of recombinant GrA with SK15.5 (SDS-PAGE); assay type: binding; conditions: GrA forms 250 nM, probe 500 nM, 1 h, Western blot
T1 construct: made in house; host or cells: Pichia pastoris
T1 sequence (P12544 27-262): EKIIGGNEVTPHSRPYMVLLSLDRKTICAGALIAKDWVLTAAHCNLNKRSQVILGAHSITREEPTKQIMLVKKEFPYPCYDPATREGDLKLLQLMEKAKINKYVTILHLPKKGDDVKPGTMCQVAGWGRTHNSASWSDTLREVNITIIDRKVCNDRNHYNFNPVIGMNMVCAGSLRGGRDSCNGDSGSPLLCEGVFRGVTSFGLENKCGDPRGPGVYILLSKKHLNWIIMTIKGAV
Method: (§3) Next, we tested the utility of our fluorescent probe for the in-gel detection of active GrA in test samples. […] We then ran a simple SDS-PAGE assay to detect labeled GrA (Figure 4A). […] In our hands, the probe bound to the enzyme, as indicated by the fluorescent 35 kDa species, after the minimal incubation time (5 min). […] The optimal concentration was 500 nM (strong signal) (Figure 4B).
(§4) (A) Incubation time of SK15.5 with enzyme optimization. […] (D) GrA in-gel detection in NK92 cell lysates. […] The results are representative of at least 2 replicates.
(§5) In contrast to the closely related GrB, GrH, GrM, and GrK, GrA is a homodimer formed by stable disulfide-linked subunits.[26] Since the subunits are oriented in opposite directions, the surrounding area may form an exosite.[26]
(§6) In the incubation time optimization assay, the enzyme and probe concentrations were constant (250 nM), and the incubation time ranged from 0 to 120 min. […] Enzyme was incubated with probe in a volume of 80 μL, followed by the reduction with 40 μL of 3 × SDS/DTT for 5 min at 95 °C. Samples were centrifuged (3 min, 4500g), and 40 μL of each sample was run on 4–12% Bis-Tris 10-well gels (Invitrogen). The first well was loaded with 2 μL of the protein marker PageRuler Plus Prestained Protein Ladder (Thermo Scientific). Electrophoresis was conducted at 165 V for 37 min at room temperature. […] Total sample volume was 80 μL, to which 40 μL of 3× SDS/DTT was added and boiled for 5 min at 95 °C. Samples were centrifuged (3 min, 4500g), and 40 μL of each sample was run on 4–12% Bis-Tris 10-well gels (Invitrogen). Each form of the enzyme without SK15.5 and probe itself were run as controls. The first well was loaded with 2 μL of protein marker PageRuler Plus Prestained Protein Ladder (Thermo Scientific). Electrophoresis and membrane transfer were conducted in the same manner as above.

[5] = target: T2, GrA (Homo sapiens, UniProt P12544); assay: as above; assay type: binding; conditions: GrA 250 nM, 37 °C
T2 construct: made in house; host or cells: Pichia pastoris
T2 sequence (P12544 29-262): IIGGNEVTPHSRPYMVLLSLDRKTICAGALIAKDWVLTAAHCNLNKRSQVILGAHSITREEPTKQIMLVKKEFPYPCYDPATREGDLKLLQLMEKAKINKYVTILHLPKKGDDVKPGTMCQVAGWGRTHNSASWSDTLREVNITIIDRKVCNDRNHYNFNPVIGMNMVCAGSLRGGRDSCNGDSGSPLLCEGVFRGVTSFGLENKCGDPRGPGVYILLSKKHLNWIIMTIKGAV
Method: as §3, §4, §5, §6

[6] = target: T3, GrK (Homo sapiens, UniProt P49863); assay: Residual activity assay, GrK; assay type: biochemical; conditions: 488 nM GrK preincubated with 10 μM compound 30 min 37 °C; 200 μM GrKref
T3 construct: made in house; host or cells: Pichia pastoris
T3 sequence (P49863 27-264): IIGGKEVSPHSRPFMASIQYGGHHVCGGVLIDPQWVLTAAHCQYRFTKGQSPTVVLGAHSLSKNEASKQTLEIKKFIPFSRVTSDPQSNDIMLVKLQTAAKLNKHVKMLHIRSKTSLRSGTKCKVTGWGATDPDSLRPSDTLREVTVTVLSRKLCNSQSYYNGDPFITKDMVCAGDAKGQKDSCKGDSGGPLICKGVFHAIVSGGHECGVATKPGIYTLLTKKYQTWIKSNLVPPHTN
Method: as §1, §2

[7] = system: GrA in NK92 cell lysates; conditions: lysates 1 × 10^7 cells/mL, probe 250 nM to 2 μM, 1 h, 37 °C
[8] = system: hNE; assay: Residual activity assay, hNE; assay type: biochemical, human; conditions: 3.3 nM hNE preincubated with 10 μM compound 30 min 37 °C; substrate Ac-Arg(NO)2-Glu(Bzl)-Oic-Abu-ACC
Method: as §1, §2

[9] = system: PR3; assay: Residual activity assay, PR3; assay type: biochemical; conditions: 3.4 nM PR3 preincubated with 10 μM compound 30 min 37 °C; substrate Ac-Glu(O-Bzl)-Lys(Ac)-Hyp(Bzl)-Nva-ACC
Method: as §1, §2

[10] = target: T4, GrB (Homo sapiens, UniProt P10144); assay: Residual activity assay, GrB; assay type: biochemical; conditions: 18 nM GrB preincubated with 10 μM compound 30 min 37 °C; 200 μM GrBref
T4 construct: made in house; host or cells: Pichia pastoris
Method: as §1, §2

[11] = target: T2, GrA; assay: Second-order inhibition rate constant kobs/I toward GrA, pseudo-first-order conditions; assay type: biochemical; conditions: pseudo-first-order; substrate SK15 10 μM; inhibitor 714–333 nM; GrA 350 nM added; pH 7.5, 37 °C; average of at least three experiments with SD
Method: We calculated the apparent second-order rate constants for inhibition (kobs(app)/I) of GrA-mediated SK15I under pseudo first-order conditions by serially diluting the new inhibitor in the range of 714–333 nM with a constant optimal substrate (SK15) concentration of 10 μM (Figure 3B).
The second-order inhibition rate constant (kobs/I expressed in M^–1 s^–1) toward GrA was measured under pseudo-first-order kinetic conditions. Ten microliters of substrate (SK15) was mixed with varying inhibitor or probe concentrations and incubated at 37 °C for 15 min. […] Experiments are presented as the average of at least three experiments with standard deviation.

[12] = target: T4, GrB; assay: GrA substrate selectivity testing on GrB; assay type: biochemical; conditions: substrate 200 μM (Fig 3A) or 67 μM, 18 nM GrB
Excerpt: Since GrA and GrK are the most structurally similar Grs, they may recognize and hydrolyze the same natural and synthetic substrates. Therefore, we tested whether our new GrA substrates are also recognized by GrK or GrB (Figure 3A). For this experiment, we screened substrates SK8 to SK28 and a GrKref substrate (Ac-Tyr-Arg-Phe-Lys-ACC) or GrBref substrate (Ac-Ile-Glu-Pro-Asp-ACC) at the same concentration using a plate reader, and we monitored the increase in fluorescence over time. The linear portions of the diagram were analyzed, and as we expected, the majority of the substrates were well recognized by GrK, even better than their recognition by GrA. […] Based on that, we concluded that Tic-Gly-Oic-Arg is a leading sequence for a specific potent inhibitor and ABP for GrA.
Figure 3 (A) GrA substrate selectivity testing on GrK and GrB. Substrates SK8–SK28 and the reference GrK and GrB substrates were placed in a 96-well plate at a concentration of 200 μM and treated with GrK or GrB. […] Data present the average of 2 replicates as adjusted RFU/s.
Figure S2. Selectivity of SK15 substrate toward selected serine proteases (GrA, GrB, GrM, GrK,
PR3, and hNE). The reference substrates were as follows: Ac-Ile-Gly-Pro-Arg-ACC for GrA, Ac -Tyr-
Arg-Phe-Lys-ACC for GrK, Ac-Ile-Glu-Pro-Asp-ACC for GrB, Ac-Lys-Val-Pro-Leu-ACC for GrM,
Ac-Glu(O-Bzl)-Lys(Ac)-Hyp(Bzl)-Nva-ACC for PR3 and Ac-Arg(NO)2-Glu(Bzl)-Oic-Abu-ACC for hNE.
Substrates were placed in a 96-well plate at a concentration of 67 µM and treated with optimal
and emission wavelengths. Data present the average of 2 replicates as adjusted RFU/s.
Figure S3. Detection of active GrA in NK92 cells.
(also on this page, place not known: S K15 hNE) . Ac-Tyr- -Arg(NO)2-Glu(Bzl)-Oic-Abu-ACC ( 89 G rA cell s. reference reference SK15 reference SK15 reference SK15 reference SK15 reference SK15 0 50 100 substrate turnover, %RFU/s PR3GrMGrBGrK hNEGrA SK15 selectivity) […]

[13] = target: T2, GrA; assay: Steady-state Michaelis–Menten kinetics of fluorogenic ACC substrates with GrA; assay type: biochemical; conditions: GrA 93 nM, 37 °C, ACC fluorescence 355/460 nm
Excerpt: All chemical and biological reagents were purchased from commercial suppliers and used without further purification. The following reagents for solid phase peptide synthesis, Rink Amide RA resin (particle size 200–300 mesh, loading 0.74 mmol/g), 2-chlorotrityl chloride resin, Fmoc-protected amino acids, biotin, 1-[bis(dimethylamino)methylene]-1H-1,2,3-triazolo[4,5-b] pyridinium 3-oxid hexafluorophosphate (HATU), piperidine, diisopropylcarbodiimide (DICI), and trifluoroacetic acid (TFA), were purchased from Iris Biotech GmbH (Marktredwitz, Germany); anhydrous N-hydroxybenzotriazole (HOBt, purity >98%) was purchased from Creosauls; 2,4,6-collidine (2,4,6-trimethylpyridine), HPLC pure acetonitrile, and triisopropylsilane (TIPS) were purchased from Sigma-Aldrich (Poznan, Poland); and N,N-diisopropylethylamie (DIPEA) was purchased from VWR International (Gdansk, Poland). Solvents such as N,N-dimethylformamide (DMF), dichloromethane (DCM), methanol (MeOH), diethyl ether (Et2O), and acetic acid (AcOH) were purchased from Avantor (Gliwice, Poland). Cy5 was purchased from Lumiprobe GmbH (Hannover, Germany). Human neutrophil elastase was purchased from BioCentrum (Kraków, Poland) and proteinase 3 from Athens Research Technology (Athens, USA). Anti-GrA antibody (rabbit, monoclonal, ab209205) was obtained from Abcam (Cambridge, Great Britain). All cell lines were purchased from DSMZ (Braunschweig, Germany) or ATCC (Manassas, USA). All kinetic assays were performed using a Spectra Max Gemini XPS spectrofluorometer (Molecular Devices) on 96-well Corning plates. The parameters of the process were as follows: 37 °C; excitation/emission wavelength, 355/460 nm; cutoff, 455 nm; varying concentrations of substrates and enzyme. All measurements were performed in duplicate, and the data represent the average of these repetitions

T4 sequence (P10144 21-247): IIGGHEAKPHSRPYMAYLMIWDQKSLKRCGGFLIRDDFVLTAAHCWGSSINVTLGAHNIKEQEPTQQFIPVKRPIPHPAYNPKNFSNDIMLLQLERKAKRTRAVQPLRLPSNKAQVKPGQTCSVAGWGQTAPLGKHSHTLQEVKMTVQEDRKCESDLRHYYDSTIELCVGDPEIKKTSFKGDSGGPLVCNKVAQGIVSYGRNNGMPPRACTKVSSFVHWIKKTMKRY

L-Arg
relative GrA activity on P1 library substrate Ac-Ile-Ser-Pro-P1-ACC [1]: 92%

Cy5-Ahx-Tic-Gly-Oic-Arg^P(OPh)2 [SK15.5]
residual GrA activity after preinhibition (in words) [2]: completely blocked | inhibition of GrM [3]: almost no inhibition effect | probe labeling of GrA zymogen (in words) [4]: no signal was detected in the zymogen | optimal probe concentration for GrA labeling (strong signal) ([5]; 30 min, SDS-PAGE): 500 nM | detection limit, minimum probe concentration needed for GrA labeling ([5]; 30 min, SDS-PAGE, estimated): approximately 50 nM | incubation time after which labeling no longer increases (maximal labeling) ([5]; probe 250 nM): 30 min | minimal incubation time after which probe-bound GrA is detected ([5]; probe 250 nM): 5 min | inhibition of GrK [6]: 3% | selectivity of labeling in NK92 cell lysates (in words) [7]: did not observe any additional bands | inhibition of hNE [8]: almost no inhibition effect | inhibition of PR3 [9]: almost no inhibition effect | inhibition of GrB [10]: almost no inhibition effect | kobs/I [11]: 3521 ± 296 M^–1 s^–1

L-Asp
relative GrA activity on P1 library substrate Ac-Ile-Ser-Pro-P1-ACC [1]: 17.8%

Ac-Met(O)-Gly-Hyp(Bzl)-3-Abz-ACC [SK13]
hydrolysis by GrB (in words) [12]: significantly hydrolyzed

Ac-IG[Oic]R-{ACC} (SMILES CC[C@H](C)[C@H](NC(C)=O)C(=O)NCC(=O)N1[C@H](C(=O)N[C@@H](CCCNC(=N)N)C(=O)Nc2ccc3c(CC(N)=O)cc(=O)oc3c2)C[C@@H]2CCCC[C@@H]21) [SK17]
hydrolysis by GrB (in words) [12]: significantly hydrolyzed

L-Lys
relative GrA activity on P1 library substrate Ac-Ile-Ser-Pro-P1-ACC [1]: 21%

Ac-Ile-Gly-Pro-Arg-ACC (Ac-IGPR-{ACC}; SMILES CC[C@H](C)[C@H](NC(C)=O)C(=O)NCC(=O)N1CCC[C@H]1C(=O)N[C@@H](CCCNC(=N)N)C(=O)Nc1ccc2c(CC(N)=O)cc(=O)oc2c1) [SK7, reference compound]
kcat ([13]; assay buffer pH 7.5): 0.035 ± 0.00076 s⁻¹ | kcat/KM ([13]; assay buffer pH 7.5): 78 ± 6.60 s^–1 M^–1 and 78 ± 6.6 M^–1 s^–1 | Km ([13]; substrate 1000–7.81 μM, 50 mM Tris, 100 mM NaCl, 5 mM CaCl2, 0.01% Tween-20, pH 7.5, Michaelis–Menten nonlinear regression, duplicate): 450 ± 1.3 µM
